Here are results for six molecules from publication PMC9026348, “Investigation of Direct and Retro Chromone-2-Carboxamides Based Analogs of Pseudomonas aeruginosa Quorum Sensing Signal as New Anti-Biofilm Agents” (Pharmaceuticals, 2022).

For series [1], the system named is P. aeruginosa PAO1 biofilms. The series is described as follows: Anti-biofilm assay, CFU count of adherent cells. The class given is cell-based, Pseudomonas aeruginosa PAO1. The settings on record: PAO1, 48 h, relative to untreated control, mean ± SD of 3 independent experiments; for inhibition at 50 µM: Pseudomonas aeruginosa. As to the method: The effect of all compounds was evaluated on PAO1 biofilms, grown in 24-well microplates. The antibiofilm assay used in this study is based on a low nutritive culture medium, a rather weak inoculum (10^2 CFU/mL), and a regular renewal of the culture medium (at 2, 4, 6, 20, and 24 h), in order to promote the growth of adhered cells as biofilm, instead of the growth and/or sedimentation of planktonic cells. Since the QS systems are involved in early steps of biofilm formation, compounds were added at t0. After incubation, viable cells were quantified by CFU plate counts.
The rather low concentration of 50 µM used was set up according to detected concentrations of QS molecules in CF patients’ lungs. […] For all compounds, MICs/MBCs were higher than 500 µM. To be considered active, a threshold of 50% inhibition, relative to the untreated control, was applied.
Pseudomonas aeruginosa PAO1 was obtained from the Institute Pasteur Collection (CIP 104116, Paris, France), frozen and kept at -80 °C in a 20% (v/v) glycerol stock solution. Before each experiment, two successive subcultures were prepared on trypticase soy agar and incubated for 24 h under aerobic conditions at 37 °C. Before each experiment, bacterial suspensions of 10^8 CFU/mL were prepared by adjusting OD at 640 nm to 0.150.
The bacterial enumerations were done on trypticase soy agar. The minimum biofilm broth used for biofilm formation (MBB) was prepared in sterile distilled water (SDW) and was composed of MgSO4·7H2O (0.02 g/L), FeSO4·7H2O (0.5 mg/L), Na2HPO4 (1.25 g/L), KH2PO4 (0.5 g/L), (NH4)2SO4 (0.1 g/L), and glucose (0.05 g/L) from Merck-Sigma (France).
The enumeration of adhered bacteria was carried-out according to Campanac et al. with some modifications. P. aeruginosa biofilms were grown in a 24-wells microtiter plate for 48 h. The culture medium was composed of BBM 2X (1.0 mL) and 1.0 mL of a 10^−4 M solution of tested compound dissolved in SDW (final concentration 50 µM). After inoculation with 100 µL of a 10^2 CFU/mL bacterial suspension of P. aeruginosa PAO1 (final inoculum 10 CFU/well), the microtiter plate was incubated à 37 °C. After 2 h, 4 h, 6 h, 20 h and 24 h of incubation, each well was emptied, rinsed twice with SDW, and the culture medium was renewed. After 48 h of culture, the biofilm was rinsed twice with 2.0 mL SDW. The bottom of each well was scraped with a sterile spatula and suspended in 1.0 mL of SDW. The content of each well was diluted by serial dilutions in test tubes. After inclusion of 0.9 mL of each dilution in trypticase soy agar, Petri dishes were incubated for 48 h at 37 °C. The number of colony forming units (CFUs) was counted and the inhibition percentage calculated using the following formula: Inhibition(%)=Adhered cellsControl(CFU/mL)−Adhered cellsSample(CFU/mL) /Adhered cellsControl×100

A further series in a line: Cytotoxicity, MTT assay. Format: cell-based. The settings on record: African green monkey, Vero cells (ATCC CCL-81). As to the method: Cells were incubated with different concentrations of compounds 3e, 3′a, 6a, 6b, 6d, 6f, 6k, 6s, 6n, and 6o, varying from 3.9 µM to 1.0 mM. The relative cell viabilities were determined after 24 h using the MTT assay and compared to the untreated control (100% viability). A 5% Tween solution was used as positive control. Figure 5 reports the viability % for all evaluated concentrations.
Evaluation of compounds’ cytotoxicity was performed using the MTT (3-(4,5-dimethylthiazol-2-yl)-2,5-diphenyltetrazolium bromide) colorimetric assay, based on the Mosmann et al. procedure with some modifications. […] Stock solutions of each compound prepared in Dulbeccos’s phosphate-buffered saline (D-PBS, Sigma, St. Quentin Fallavier, France) at a concentration of 2 mM were subjected to 2-fold serial dilutions with RPMI medium.
96-wells microtiter plates were first filled with 100 µL of a cell suspension prepared in RPMI medium (2 × 10^4 cells/100 µL). […] A third control was performed with a non-inoculated culture medium and compounds solution to validate the absence of interactions (OD measurements) between the assessed molecule and the reagents used in the procedure. […] After agitation, the OD was measured at 570 nm using a CLARIOstar Plus plate reader (BMG Labtech) and the viability percentage was calculated using the following formula. […]

SMILES strings stand for the structures.

`O=C(Nc1cc(=O)c2ccccc2o1)c1ccc([N+](=O)[O-])cc1[N+](=O)[O-]` [6n, 2,4-Dinitro-N-(4-oxo-4H-chromen-2-yl) benzamide] displayed a melting point of 252 °C. Besides, in series [1] (50 µM), the “Biofilm Inhibition (%)” value stood at 90.0 ± 9.9%. Besides, the inhibition at 50 µM in series [1] was found to be 90.9 ± 9.9%. The IC50 at 24 h in the series “Cytotoxicity, MTT assay” was more than 1000 µM.
Regarding `O=C(Nc1cc(=O)c2ccccc2o1)c1ccc(N2CCOCC2)cc1` [6u, 4-Morpholino-N-(4-oxo-4H-chromen-2-yl) benzamide], the melting point came to 287 °C. This molecule also displayed an inhibition at 50 µM in series [1] of 56.8 ± 10%.
In the same order, the values of `O=C(Nc1ccccc1)c1cc(=O)c2ccccc2o1` [3a, 4-Oxo-N-phenyl-4H-chromene-2-carboxamide] are 229 °C and 21.4 ± 17%.
In the same order, the values of `CCc1cccc(NC(=O)c2cc(=O)c3ccccc3o2)c1` [3′a, N-(3-Ethylphenyl)-4-oxo-4H-chromene-2-carboxamide] are 168 °C and 70.5 ± 5.6%.
Take `O=C(Nc1cc(=O)c2ccccc2o1)c1ccc(F)cc1Cl` [6k, 2-Chloro-4-fluoro-N-(4-oxo-4H-chromen-2-yl) benzamide]: the melting point worked out at 249 °C. The same molecule showed an inhibition at 50 µM in series [1] of 63.2 ± 9.3%.
In the same order, the values of `CCCNC(=O)c1cc(=O)c2ccccc2o1` [3w, 4-Oxo-N-propyl-4H-chromene-2-carboxamide] are 166 °C and less than 10%.

The melting point is the temperature, or range, at which the solid turns liquid. A word on the inhibition: it is the drop in the measured response relative to a control, in per cent. Low readings indicate a response near the control, high ones a response far below the control. The term IC50 denotes the concentration needed to halve the response being measured. Lower therefore signals inhibition by little substance.
